According to patent publication US9206411B2, “Staphylococcal Phage2638A endolysin amidase domain is lytic for Staphylococcus aureus” (priority 2012, dated 2015):

B1: 2638A 1-180Mut-486: repaired full length construct, codon 180 TTG silently mutated to CTC, SEQ ID NO:4 (protein)
chain: MLTAIDYLTKKGWKISSDPRTYDGYPKNYGYRNYHENGINYDEFCGGYHRAFDVYSNETNDVPAVTSGTVIEANDYGNFGGTFVIRDANDNDWIYGHLQRGSMRFVVGDKVNQGDIIGLQGNSNYYDNPMSVHLHLQLRPKDAKKDEKSQVCSGLAMEKYDITNLNAKQDKSKNGSVKELKHIYSNHIKGNKITAPKPSIQGVVIHNDYGSMTPSQYLPWLYARENNGTHVNGWASVYANRNEVLWYHPTDYVEWHCGNQWANANLIGFEVCESYPGRISDKLFLENEEATLKVAADVMKSYGLPVNRNTVRLHNEFFGTSCPHRSWDLHVGKGEPYTTTNINKMKDYFIKRIKHYYDGGKLEVSKAATIKQSDVKQEVKKQEAKQIVKATDWKQNKDGIWYKAEHASFTVTAPEGIITRYKGPWTGHPQAGVLQKGQTIKYDEVQKFDGHVWVSWETFEGETVYMPVRTWDAKTGKVGKLWGEIKLEHHHHHH
modifications: Mutated Phage 2638a
B2: 2638A 180-486: engineered amidase-SH3b construct initiated at codon 180, SEQ ID NO:6 (protein)
chain: MKHIYSNHIKGNKITAPKPSIQGVVIHNDYGSMTPSQYLPWLYARENNGTHVNGWASVYANRNEVLWYHPTDYVEWHCGNQWANANLIGFEVCESYPGRISDKLFLENEEATLKVAADVMKSYGLPVNRNTVRLHNEFFGTSCPHRSWDLHVGKGEPYTTTNINKMKDYFIKRIKHYYDGGKLEVSKAATIKQSDVKQEVKKQEAKQIVKATDWKQNKDGIWYKAEHASFTVTAPEGIITRYKGPWTGHPQAGVLQKGQTIKYDEVQKFDGHVWVSWETFEGETVYMPVRTWDAKTGKVGKLWGEIKLEHHHHHH
modifications: Phage 2638a
B3: 2638A 139-486: truncated endolysin with full length amidase and SH3b domains, SEQ ID NO:5 (protein)
chain: MRPKDAKKDEKSQVCSGLAMEKYDITNLNAKQDKSKNGSVKELKHIYSNHIKGNKITAPKPSIQGVVIHNDYGSMTPSQYLPWLYARENNGTHVNGWASVYANRNEVLWYHPTDYVEWHCGNQWANANLIGFEVCESYPGRISDKLFLENEEATLKVAADVMKSYGLPVNRNTVRLHNEFFGTSCPHRSWDLHVGKGEPYTTTNINKMKDYFIKRIKHYYDGGKLEVSKAATIKQSDVKQEVKKQEAKQIVKATDWKQNKDGIWYKAEHASFTVTAPEGIITRYKGPWTGHPQAGVLQKGQTIKYDEVQKFDGHVWVSWETFEGETVYMPVRTWDAKTGKVGKLWGEIKLEHHHHHH
modifications: Phage 2638a

How the values were obtained:
MRSA strain NRS382 = test: Control of systemic MRSA infection in a murine model; assay type: in vivo, Staphylococcus aureus; settings: for Mean NRS382 Titer in the Blood: Recovered 48 hr post infection from surviving mice, same doses
[1] = tested on: S. aureus strain NRS119 (SA LinR #12; linezolid resistant); test: Plate lysis assay (FIG. 3); assay type: cell-based; settings: lawn on TSA plates, observed over days
Procedure: Purified proteins for each construct were diluted in sterile nickel column elution buffer, and 6 μL of lysostaphin (11 μg) or the constructs (0.2 nmoles or ˜11 μg for the repaired construct 2638A 1-180Mut-486) was spotted onto a freshly spread lawn of S. aureus strain NRS119 (SA LinR #12; linezolid resistant) growing cells that had air dried for 30 min on tryptic soy agar (TSA) plates. L=[…] Lysostaphin (Sigma); Spot 1=11 μg; all other constructs are 0.2 nmoles (˜11 μg for the repaired construct 2638A 1-180Mut-486) […]. The spotted plates were air dried for 10 min in a laminar flow hood and incubated overnight in a 37° C. environment. Scoring of the cleared spots occurred within 20 h of plating the cells.
The Plate Lysis assay results (FIG. 3) agree with the turbidity reduction assay. Each of the M23 peptidase dependent or SH3b-truncating constructs showing weak activity on S. aureus strain Newman strain. In addition to the Plate Lysis results in FIG. 3, we have also examined numerous strains with reduced but real lytic activity (Table 1). However, the plate lysis results with the 2638A endolysin constructs are extremely novel in appearance. Plate lysis results are routinely visualized as a discrete cleared spot on a lawn of bacteria after a single overnight of culture. […]

S. aureus strain Newman [2] = test: Turbidity reduction assay; assay type: cell-based; settings: 0.5 μM protein; live S. aureus Newman; Mn2+, Mg2+, Ca2+ 1 mM; FIG. 3
Procedure: The turbidity assay measures the drop in optical density (OD) resulting from lysis of the target bacteria with the phage endolysin-derived protein. Mid log phase (OD600 nm of 0.4-0.6) target cells were grown in Brain Heart Infusion (Becton Dickenson, Franklin Lakes, N.J.) and concentrated in lysing buffer A (LBA; 50 mM ammonium acetate, 10 mM CaCl2, 1 mM DTT at pH 6.2) to an OD600 nm of ˜2.0. The turbidity reduction assays were performed with identical molar amounts of proteins and S. aureus strain Newman with the addition of the bivalent metal cations Mn^2+, Mg^2+, and Ca^2+ at a concentration of 1 mM. The turbidity reduction assay contained 0.5 μM protein (5.7 μg of full length repaired construct: 2638A 1-180Mut-486 in 200 μl assay) unless otherwise noted. Lane 1, 2638A 1-486 (5.7 μg total protein in 200 μl assay); Lane 2, 2638A 1-196; Lane 3, 2638A 1-220; Lane 4, 2638A 1-244; Lane 5, 2638A 1-220::355-486; Lane 6, 2638A 1-411; Lane 7, 2638A 139-411; Lane 8, 2638A 139-486; Lane 9, 2638A 180-486; Lane 10, 2638A 1-180Mut-486. Mixing reactions between the repaired full length construct 2638A 1-180Mut-486 (R) and the engineered amidase-SH3b construct 2638A 180-486 (A) were performed in the following ratios Lane 11, R:A::1:1, 1 μM; Lane 12, R:A::1:1, 0.5 μM; Lane 13, R:A::1:3, 0.5 μM; and Lane 14, R:A::3:1, 0.5 μM. Optical Density measurements are taken at regular intervals. If the lysin can digest the cell wall, lysis will occur with a subsequent reduction in OD. Changes in the OD600 nm in the control sample (cells alone) were subtracted from samples containing both cells and lysin, before calculating the specific activity. Specific Activity=ΔOD600 nm/μM/min.

S. aureus strain Newman [3] = test: Zymogram analysis; assay type: cell-based; settings: 5 μg loaded; SDS treated S. aureus Newman embedded in gel; FIG. 1C
Excerpt: Zymograms are not usually interpreted quantitatively (especially since these were loaded with μg equivalents and not molar equivalents of enzyme) but rather are used to indicate that the minor contaminating bands in the preparations are not contributing to the activity of the preparation. There was virtually no activity from any of the minor (non-shadow) bands in the zymogram assay after extended periods. However, the presence of nearly equal amounts of the active shadow band (from stained SDS gel) in many preparations negated the ability to quantify the activity from either the isolated amidase domain (2638A 139-411; 2638A 139-486) or the full length construct.

[4] = 0 hours, Balb/c mice, I.P. 4×10^7 CFU, treated 30 min post infection: 2638A 200 μg/mouse I.P., Vancomycin 375 μg/mouse s.c., Oxacillin 1250 μg/mouse s.c.

Molecule | % Survival (MRSA strain NRS382; [4]) [%] | % Survival (MRSA strain NRS382; 4 hours, same model and doses) [%] | % Survival (MRSA strain NRS382; 8 hours, same model and doses) [%] | % Survival (MRSA strain NRS382; 12 hours, same model and doses) [%] | % Survival (MRSA strain NRS382; 16 hours, same model and doses) [%] | % Survival (MRSA strain NRS382; 20 hours, same model and doses) [%] | % Survival (MRSA strain NRS382; 24 hours, same model and doses) [%] | % Survival (MRSA strain NRS382; 28 hours, same model and doses) [%] | % Survival (MRSA strain NRS382; 32 hours, same model and doses) [%] | % Survival (MRSA strain NRS382; 36 hours, same model and doses) [%] | % Survival (MRSA strain NRS382; 40 hours, same model and doses) [%] | % Survival (MRSA strain NRS382; 44 hours, same model and doses) [%] | Mean NRS382 Titer in the Blood (MRSA strain NRS382) | activity in the turbidity reduction assay (S. aureus strain Newman [2]) | other results
Cc1onc(-c2ccccc2)c1C(=O)N[C@@H]1C(=O)N2[C@@H]1SC(C)(C)[C@@H]2C(=O)O [Oxacillin] | 100 | 100 | 100 | 100 | 100 | 40 | 40 | 30 | 30 | 30 | 30 | 30 | 0.9 ± 1.6 × 10^3 CFU/ml |  | survival rate (MRSA strain NRS382; after 16 to 20 hours, same model and doses): less than 40%; average septicemia score (MRSA strain NRS382; at 20 hours post infection, maintained until the end, score 0-5 per Table 4): approximately 4
CN[C@H](CC(C)C)C(=O)N[C@H]1C(=O)N[C@@H](CC(N)=O)C(=O)N[C@H]2C(=O)N[C@H]3C(=O)N[C@H](C(=O)N[C@H](C(=O)O)c4cc(O)cc(O)c4-c4cc3ccc4O)[C@H](O)c3ccc(c(Cl)c3)Oc3cc2cc(c3O[C@@H]2O[C@H](CO)[C@@H](O)[C@H](O)[C@H]2O[C@H]2C[C@](C)(N)[C@H](O)[C@H](C)O2)Oc2ccc(cc2Cl)[C@H]1O [Vancomycin] | 100 | 100 | 100 | 100 | 100 | 100 | 100 | 100 | 100 | 100 | 100 | 100 | 1.8 ± 3.3 × 10^1 CFU/ml |  | % Survival (MRSA strain NRS382; 48 hours (end of the experiment), same model and doses): 100%; septicemia score at the end of the experiment (MRSA strain NRS382; 48 hours, score 0-5 per Table 4): 0
Lysostaphin: Lysostaphin (Sigma), peptidoglycan hydrolase control in plate lysis [reference compound] |  |  |  |  |  |  |  |  |  |  |  |  |  |  | appearance and persistence of the cleared zone in plate lysis [1]: cleared zone remains that way for days or weeks
B1 |  |  |  |  |  |  |  |  |  |  |  |  |  | appreciable activity | 
B2 |  |  |  |  |  |  |  |  |  |  |  |  |  | appreciable activity | 
B3 |  |  |  |  |  |  |  |  |  |  |  |  |  | appreciable activity | staphylolytic activity (zones of clearing) in the zymogram (S. aureus strain Newman [3]): active
